Measured values from ChEMBL document CHEMBL1138442, “Structural insight into the inhibition of human kynurenine aminotransferase I/glutamine transaminase K” (J Med Chem, 2009).
pIC50: −log10 of the molar value. Each block holds one molecule with its values, some of them ahead of it. The source made the active and inactive calls. The rule behind the calls is not given here.

Tests used:
[1] = biological target: T1, Kynurenine--oxoglutarate transaminase 1 (Homo sapiens) (UniProt Q16773); assay: (§1) Inhibition of human recombinant KAT1 expressed in Sf9 cells
T1 sequence (whole entry): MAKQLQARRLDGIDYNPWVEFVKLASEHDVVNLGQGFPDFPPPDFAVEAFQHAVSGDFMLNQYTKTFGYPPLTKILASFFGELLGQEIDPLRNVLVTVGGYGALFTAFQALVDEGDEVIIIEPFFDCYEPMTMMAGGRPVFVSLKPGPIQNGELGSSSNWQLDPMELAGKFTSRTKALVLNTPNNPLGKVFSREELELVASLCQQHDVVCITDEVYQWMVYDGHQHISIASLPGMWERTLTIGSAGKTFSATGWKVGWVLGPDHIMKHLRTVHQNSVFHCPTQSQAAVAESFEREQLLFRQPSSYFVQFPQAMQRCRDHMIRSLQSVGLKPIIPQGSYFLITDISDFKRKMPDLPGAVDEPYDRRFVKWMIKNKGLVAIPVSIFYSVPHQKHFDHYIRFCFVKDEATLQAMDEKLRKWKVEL

[2] = biological target: T1, Kynurenine--oxoglutarate transaminase 1 (Homo sapiens); assay: Inhibition of human recombinant KAT1 expressed in Sf9 cells assessed as decrease in enzyme activity at 25 % ligand concentration; design: scale not given: the % may be the effect or the level left
[3] = biological target: T2, Kynurenine--oxoglutarate transaminase 1 (Homo sapiens, UniProt Q16773); assay: as §1
T2 sequence (Q16773 whole entry): T1 sequence (whole entry)

SMILES: O=C(O)C(=O)Cc1c[nH]c2ccccc12
Activity [1]: Active

Activity [2]: 10%
SMILES: OCC(O)CO

SMILES: O=C(O)CCc1c[nH]c2ccccc12 [INDOLYLPROPIONIC ACID]
pIC50 [3]: 3.85

SMILES: N[C@@H](Cc1c[nH]c2ccccc12)C(=O)O
Activity [1]: Active

SMILES: O=C(O)C(O)Cc1c[nH]c2ccccc12 (racemic)
pIC50 [3]: 3.66

SMILES: O=C(O)/C=C/c1c[nH]c2ccccc12
Activity [1]: Active

SMILES: O=C(O)Cc1c[nH]c2ccccc12
Activity [1]: Active
